Laboratory results taken from patent US20200138966A1, “BIFUNCTIONAL SMALL PEPTIDE FOR AUTOIMMUNE DIABETES” (Board of Supervisors of Louisiana State University and …, priority 2017, published 2020).

Legend:
NOD mice = conditions: inhibition of CXCR4 activity; cited from earlier work
NOD/LtJ T cells = conditions: in conjunction with SDF-1α; cited from earlier work
NOD CD3 T cell = test: CD3 T cell adhesion to TNF-α activated islet microvascular endothelial cells; assay type: cell-based, mouse; conditions: SDF-1α 50 ng/ml; NOD compared to NON or C57 T cells; FIG. 2
human CD3 T cell = test: Shear mediated CD3 T cell detachment from fresh frozen human pancreas tissue; assay type: cell-based; conditions: SDF-1α pretreatment, physiological shear stress
Text: FIG. 3 is a line graph showing non-diabetic human CD3 T cell shear mediated detachment from fresh frozen human pancreas tissue with or without SDF-1 pretreatment.
FIG. 4 is a line graph showing T1D human CD3 T cell detachment from fresh frozen human pancreas tissue with or without SDF-1 pretreatment. 3 non-diabetic and 3 T1D subjects <1 yr diagnosis were used for T cell isolations. *p<0.01 w/o vs with SDF-1 treatment.
SDF-1α stimulates diabetogenic T cell chemorepulsion: a novel mechanism for potential therapeutic intervention in T1D. Chemokines may be differentially expressed in T1D, which play a role in leukocyte infiltration and adhesion. SDF-1α plays a key role in leukocyte adhesion by activating leukocyte integrins to higher affinity state that promotes their clustering. Due to this effect, SDF-1α has been viewed as a universally potent chemoattractant for leukocyte recruitment at low nanomolar concentrations. However, the inventors discovered novel mechanisms of autoimmune T cell chemorepulsion responses in autoimmune NOD/LtJ diabetic mice and in human T1D T cells at SDF-1α concentrations ranging from 1-100 nM.

NOD/LtJ CD3 T cell = test: Shear mediated detachment from parallel plate flow chambers coated with recombinant Fc chimera ICAM-1 and VCAM-1; assay type: cell-based, mouse; conditions: SDF-1 (250 ng/ml) without Slit-2; FIG. 13
Method: FIG. 13 is a bar graph showing NOD CD3 T cell shear detachment at 1 dyne/cm^2 to adhesion molecules with SDF-1 (250 ng/ml) ±Slit-2 (20 μg/ml). *p<0.05 between indicated comparisons.
FIG. 14 is a bar graph showing NOD CD3 T cell shear detachment at 2.5 dyne/cm^2 to adhesion molecules with SDF-1 (250 ng/ml) ±Slit-2 (20 μg/ml). *p<0.05 between indicated comparisons.
Slit-2 peptide stimulates SDF-1 mediated NOD/LtJ T cell detachment: The inventors next examined whether Slit2 engagement of NOD/LtJ T cell Robo-1 could facilitate SDF-1 mediated chemorepulsion. To study this in an unambiguous way, recombinant Fc chimera endothelial cell adhesion molecules ICAM-1 and VCAM-1 was used to coat the surface of parallel plate flow chambers with or without SDF-1α to precisely control the density and presentation of adhesion molecules and chemokine for adhesive interactions.

NOD/LtJ CD3 T cells = test: Hydrodynamic shear detachment assay of T cells off TNF-α activated islet endothelial cells; assay type: cell-based, mouse
Text: T cell Robo-1 expression governs SDF-1 mediated detachment: The inventors examined whether Robo-1 immuno-neutralization could affect SDF-1α mediated chemorepulsion of NOD/LtJ CD3 T cells. FIGS. 5-7 show results from hydrodynamic shear detachment assays of T cells off of TNF-α activated islet endothelial cells. FIG. 5 illustration indicates molecular events. FIGS. 6 and 7 illustrate the effect of Robo-1 antibody on T cell detachment at low and higher shear rates (1 and 2.5 dyne/cm^2, respectively).

c1cc(CN2CCCNCCNCCCNCC2)ccc1CN1CCCNCCNCCCNCC1 [AMD3100]
adoptive transfer of diabetes (NOD mice): exacerbated adoptive transfer of diabetes

LNLLSLYDN [LRR-11, Slit-2 peptide containing LRR domain]
attachment of NOD/LtJ T cells from recombinant endothelial cell adhesion molecules (NOD/LtJ T cells): can inhibit attachment

LNSLVLYGN [LRR-9, Slit-2 peptide containing LRR domain]
attachment of NOD/LtJ T cells from recombinant endothelial cell adhesion molecules (NOD/LtJ T cells): can inhibit attachment

LQLLLLNAN [LRR-10, Slit-2 peptide containing LRR domain]
attachment of NOD/LtJ T cells from recombinant endothelial cell adhesion molecules (NOD/LtJ T cells): can inhibit attachment

LRRIDLSNN [LRR-8, Slit-2 peptide containing LRR domain]
attachment of NOD/LtJ T cells from recombinant endothelial cell adhesion molecules (NOD/LtJ T cells): can inhibit attachment

SDF-1α: chemokine, ligand of CXCR4, used to treat T cells or coat flow chambers (AYWKENKEQ)
NOD CD3 T cell adhesion to TNF-α activated islet endothelial cells (NOD CD3 T cell): selectively prevents NOD CD3 T cell adhesion | human T1D T cell detachment from fresh human pancreas tissue (human CD3 T cell; T1D subjects, FIG. 4): selectively stimulated human T1D T cell detachment | T cell detachment of non-T1D subjects from fresh human pancreas tissue (human CD3 T cell; non-diabetic subjects, FIG. 3): not T cell detachment of non-T1D subjects | NOD/LtJ CD3 T cell shear mediated detachment from ICAM-1 and VCAM-1 (NOD/LtJ CD3 T cell): even more resistant to shear detachment | NOD T cell shear detachment (NOD/LtJ CD3 T cells; 1 dyne/cm^2, FIG. 6): stimulates NOD T cell shear detachment | NOD T cell shear detachment (NOD/LtJ CD3 T cells; 2.5 dynes/cm^2, FIG. 7): stimulates NOD T cell shear detachment

TITEIRLEQN [LRR-7, Slit-2 peptide containing LRR domain]
attachment of NOD/LtJ T cells from recombinant endothelial cell adhesion molecules (NOD/LtJ T cells): can inhibit attachment
